Experimental findings from patent publication US10202404B2, “Polycyclic pyridone derivative having integrase inhibitory activity” (Shionogi & Co., Ltd., priority 2014, dated 2019) are described below.

The structures appear in SMILES notation.

One test relates to HIV. Description: Anti-HIV activity (MT-4 cells, MTT). Type of test: cell-based. To be noted: 50% HIV inhibition concentration; MT-4 cells infected with HIV, incubated 4 days, MTT readout. Here is the method: Previously, a series of two-fold dilution on test samples were carried out in a 96-well plate (50 μL/well). Two plates were made for measuring anti-HIV activity and measuring cytotoxicity. For each agent, measurement in duplicate was carried out. An MT-4 cell suspension of 2.5×10^5/mL was dispensed at 100 μL/well onto the 96-well plate containing the test samples. An HIV virus solution was dispensed at 50 μL/well onto the 96-well plate containing the test samples and the cell. To the plate for measuring cytotoxicity, a culture solution was dispensed at 50 μL/well. It was mixed by a plate mixer, and then incubated in a CO2 incubator for 4 days. […] Thirty microliters of a MTT (3-(4,5-dimethylthiazol-2-yl)-2,5-diphenyltetrazolium bromide) solution was dispensed to each well.
A reaction was allowed to occur in a CO2 incubator for an hour. From each well, 150 μL of the supernatant was removed such that cells are not sucked. One-hundred and fifty microliters of a cell lysis solution was added thereto, and then it was mixed well by a plate mixer until the whole cells are lysed. The mixed 96-well plates were measured by a microplate reader at two wavelengths, 560 nm/690 nm. Based on the following calculation formula, 50% HIV inhibition concentration (EC50) was calculated. EC50=10Z Z=(50%−Low %)/(High %−Low %)×{log(High conc.)−log(Low conc.)}+log(Low conc.) Based on the following calculation formula, 50% cytotoxic concentration (CC50) was calculated. CC50=10Z Z=(50%−Low %)/(High %−Low %)×{log(High conc.)−log(Low conc.)}+log(Low conc.) Based on the following calculation formula, selectivity index (ST) was calculated. SI=CC50/EC50 (Result)
Consider `C[C@@H]1CCO[C@H]2Cn3cc(-c4nnc(Oc5ccc(F)cc5F)s4)c(=O)c(O)c3C(=O)N12` [Compound A-51], for which it took 6.8 nM to reach a half-maximal effect (EC50).

For the molecule `C[C@@H]1CCO[C@H]2Cn3cc(-c4cn(Cc5ccc(F)cc5F)cn4)c(=O)c(O)c3C(=O)N12` [Compound A-49], the response was half-maximal at 10 nM (EC50).

The same test, now with this note: Human immunodeficiency virus 1, MT4, 96 h; 50% HIV inhibition concentration; MT-4 cells infected with HIV, incubated 4 days, MTT readout.
In the case of `C[C@@H]1CCN2C(=O)c3c(O)c(=O)c(-c4nnc(Cc5ccc(F)cc5F)s4)cn3C[C@@H]2O1` [Compound A-16], the EC50 (commonly the concentration needed to bring the measured effect to its halfway point) is 2.1 nM.

In turn, `O=C1c2c(O)c(=O)c(-c3nnc(Cc4ccc(F)cc4F)s3)cn2CN2CCCN12` [Compound C-19] displayed an EC50 of 4.2 nM.

Consider `O=C1c2c(O)c(=O)c(-c3nnc(Cc4c(F)cc(F)cc4F)s3)cn2C[C@@H]2CCCCN12` [Compound B-8], for which it took 3.8 nM to reach a half-maximal effect (EC50).

`O=C1c2c(O)c(=O)c(-c3nnc(Cc4cccc(Cl)c4F)s3)cn2C[C@H]2CCCCN12` [Compound B-5] had an EC50 of 6.7 nM.

In the case of `O=C1c2c(O)c(=O)c(-c3nnc(Cc4ccc(F)cc4F)s3)cn2CN2CCCCN12` [Compound C-15], the half-maximal effective concentration (EC50) stood at 1.7 nM.

For `C[C@@H]1CO[C@H]2Cn3cc(-c4ncc(Cc5cccc(Cl)c5F)s4)c(=O)c(O)c3C(=O)N2C1` [Compound A-9], a half-maximal response (EC50) required 7.1 nM.

`C[C@H]1CO[C@@H]2Cn3cc(-c4cn(Cc5ccc(F)cc5F)cn4)c(=O)c(O)c3C(=O)N12` [Compound A-44] showed an EC50 of 5.1 nM.

`O=C1c2c(O)c(=O)c(-c3nnc(Cc4ccc(F)cc4F)s3)cn2C[C@H]2CCCN12` [Compound B-3] displayed an EC50 of 3.7 nM.

The molecule `CCN1CN(CCOC)C(=O)c2c(O)c(=O)c(-c3nnc(Cc4cccc(Cl)c4F)s3)cn21` [Compound C-4] gave a half-maximal effective concentration (EC50) of 2.1 nM.

Take `O=C1c2c(O)c(=O)c(-c3nnc(Cc4ccc(F)cc4F)s3)cn2C[C@@H]2[C@H]3CC[C@H](C3)N12` [Compound B-22]: the midpoint of the response, the EC50, lay at 3.5 nM.

For the molecule `CCN1CN(CCCOC)C(=O)c2c(O)c(=O)c(-c3nnc(Cc4ccc(F)cc4F)s3)cn21` [Compound C-7], the concentration giving a half-maximal response (EC50) worked out at 2 nM.

With `C[C@H]1CO[C@@H]2Cn3cc(-c4ncc(Cc5c(F)cc(F)cc5F)s4)c(=O)c(O)c3C(=O)N12` [Compound A-14], the EC50 came out at 1.2 nM.

Regarding `CC1CCN2Cn3cc(-c4nnc(Cc5ccc(F)cc5F)s4)c(=O)c(O)c3C(=O)N12` (stereo not drawn) [Compound C-28], it took 4.8 nM to reach a half-maximal effect (EC50).

The molecule `O=C1c2c(O)c(=O)c(-c3nnc(Cc4ccc(F)cc4F)s3)cn2CN2CC3(CC3)CN12` [Compound C-24] came in with an EC50 of 2.4 nM.

In turn, `C[C@H]1CCO[C@@H]2Cn3cc(-c4nnc(Cc5cccc(Cl)c5F)s4)c(=O)c(O)c3C(=O)N12` [Compound A-28] had an EC50 of 3.3 nM.

The molecule `C[C@@H]1CCO[C@H]2Cn3cc(-c4nnc(Cc5ccc(F)c(F)c5F)s4)c(=O)c(O)c3C(=O)N12` [Compound A-31] showed an EC50 of 2.3 nM.

On to `O=C1c2c(O)c(=O)c(-c3nnc(Cc4cccc(Cl)c4F)s3)cn2C[C@@H]2CCCCN12` [Compound B-6], for which the concentration giving a half-maximal response (EC50) turned out to be 7.5 nM.

In the case of `Cc1nc(-c2cn3c(c(O)c2=O)C(=O)N2[C@@H](C)CO[C@@H]2C3)sc1Cc1cccc(Cl)c1F` [Compound A-46], the response was half-maximal at 3.9 nM (EC50).

As for `O=C1c2c(O)c(=O)c(-c3nnc(Cc4ccc(F)cc4F)s3)cn2C[C@@H]2O[C@H]3CCC[C@H]3N12` [Compound A-63], the EC50 was found to be 2 nM.

Molecule `O=C1c2c(O)c(=O)c(-c3nnc(Cc4ccc(F)cc4F)s3)cn2C[C@@H]2O[C@H]3CC[C@H](C3)N12` [Compound A-66] returned an EC50 of 7.2 nM.

`C[C@@H]1CO[C@H]2Cn3cc(-c4nnc(Cc5ccc(F)cc5F)s4)c(=O)c(O)c3C(=O)N12` [Compound A-19] showed an EC50 of 3.1 nM.

`Cc1nc(-c2cn3c(c(O)c2=O)C(=O)N2[C@@H](C)CO[C@@H]2C3)sc1Cc1ccc(F)cc1F` [Compound A-47] came in with a 50% effective concentration (EC50) of 3.4 nM.

Turning to `C[C@@H]1CCS[C@H]2Cn3cc(-c4nnc(Cc5ccc(F)cc5F)s4)c(=O)c(O)c3C(=O)N12` [Compound A-76], it took 4.7 nM to reach a half-maximal effect (EC50).

The molecule `O=C1c2c(O)c(=O)c(-c3nnc(Cc4ccc(F)cc4F)s3)cn2CC2OCC3(COC3)CN12` (stereo not drawn) [Compound A-58] returned an EC50 of 10 nM.

`O=C1c2c(O)c(=O)c(-c3nnc(Cc4ccc(F)cc4F)s3)cn2CN2CCOCCN12` [Compound C-16] displayed a half-maximal effective concentration (EC50) of 8.5 nM.

As to `COCCN1C(=O)c2c(O)c(=O)c(-c3nnc(Cc4ccc(F)cc4F)s3)cn2CN1C` [Compound C-20], the response was half-maximal at 1.7 nM (EC50).

As to `O=C1c2c(O)c(=O)c(-c3nnc(Cc4c(F)cc(F)cc4F)s3)cn2C[C@H]2CCCCN12` [Compound B-7], the EC50 amounted to 2.9 nM.

Molecule `C[C@@H]1CO[C@H]2Cn3cc(-c4ncc(Cc5cccc(Cl)c5F)s4)c(=O)c(O)c3C(=O)N12` [Compound A-3] gave a concentration for a half-maximal effect (EC50) of 3.7 nM.

Molecule `O=C1c2c(O)c(=O)c(-c3nnc(Cc4ccc(F)cc4F)s3)cn2C[C@H]2O[C@@H]3COC[C@@H]3N12` [Compound A-73] had an EC50 of 5.7 nM.

With `O=C1c2c(O)c(=O)c(-c3nnc(Cc4ccc(F)cc4F)s3)cn2C[C@@H]2O[C@H]3COC[C@H]3N12` [Compound A-74], the concentration giving a half-maximal response (EC50) came out at 12 nM.

Regarding `C[C@H]1CO[C@@H]2Cn3cc(-c4nnc(Cc5cccc(Cl)c5F)s4)c(=O)c(O)c3C(=O)N12` [Compound A-18], a half-maximal response (EC50) required 2.3 nM.

`Cc1nc(-c2cn3c(c(O)c2=O)C(=O)N2[C@H](C)CCO[C@H]2C3)sc1Cc1cccc(Cl)c1F` [Compound A-80] registered a concentration giving a half-maximal response (EC50) of 6.3 nM.

In turn, `O=C1c2c(O)c(=O)c(-c3ncc(Cc4cccc(Cl)c4F)s3)cn2C[C@@H]2CCCN12` [Compound B-14] displayed a concentration for a half-maximal effect (EC50) of 10 nM.

Take `C[C@H]1N2C(=O)c3c(O)c(=O)c(-c4nnc(Cc5ccc(F)cc5F)s4)cn3C[C@@H]2OCC1(F)F` [Compound A-78]: the EC50 stood at 4.6 nM.

The molecule `C[C@@H]1CCO[C@H]2Cn3cc(-c4cn(Cc5cccc(Cl)c5F)cn4)c(=O)c(O)c3C(=O)N12` [Compound A-50] had an EC50 of 12 nM.

Turning to `C[C@H]1CN(C2CC2)[C@@H]2Cn3cc(-c4nnc(Cc5ccc(F)cc5F)s4)c(=O)c(O)c3C(=O)N12` [Compound A-60], the half-maximal effective concentration (EC50) worked out at 2 nM.

Consider `O=C1c2c(O)c(=O)c(-c3nnc(Cc4ccc(F)cc4F)s3)cn2C[C@@H]2N1C[C@H]1CCCN12` [Compound A-55], for which a half-maximal response (EC50) required 1.7 nM.

Consider `CC(=O)Oc1c2n(cc(-c3nnc(Cc4ccc(F)cc4F)s3)c1=O)C[C@@H]1OCC[C@@H](C)N1C2=O` [Compound D-1], for which the midpoint of the response, the EC50, lay at 3.8 nM.

The molecule `O=C1c2c(O)c(=O)c(-c3ncc(Cc4ccc(F)cc4F)s3)cn2C[C@H]2CCCCN12` [Compound B-16] registered an EC50 of 7.7 nM.

On to `C[C@@H]1N2C(=O)c3c(O)c(=O)c(-c4nnc(Cc5ccc(F)cc5F)s4)cn3C[C@H]2OCC1(F)F` [Compound A-77], for which the EC50 stood at 7.2 nM.

Consider `C[C@@H]1CCO[C@H]2Cn3cc(-c4nc(C(F)(F)F)c(Cc5ccc(F)cc5F)s4)c(=O)c(O)c3C(=O)N12` [Compound A-48], for which a half-maximal response (EC50) required 14 nM.

`CN1Cn2cc(-c3nnc(Cc4ccc(F)cc4F)s3)c(=O)c(O)c2C(=O)N1C` [Compound C-18] showed a 50% effective concentration (EC50) of 2.3 nM.

Molecule `O=C1c2c(O)c(=O)c(-c3ncc(Cc4ccc(F)cc4F)s3)cn2C[C@H]2CCCN12` [Compound B-15] displayed a half-maximal effective concentration (EC50) of 4 nM.
